First: NS(=O)(=O)c1ccc(SCCCO)cc1
Second: NS(=O)(=O)c1cccc(Cl)c1
The melting point of the first is lower: 117 °C for the first, 146 °C for the second.

First: C1COCCN2CCOCCOCCN(CCO1)CCOCCOCC2
Second: C1CCC2(CC1)OCC(C1OC3(CCCCC3)OC1C1COC3(CCCCC3)O1)O2 (centres undefined)
The melting point of the first is lower: 68 to 72 °C for the first, 82 to 84 °C for the second.

First: CCOc1ccc(-c2nnc3sc(-c4ccc(Cl)cc4)nn23)cc1
Second: CCOc1ccc(-c2nnc3n2NC(c2ccc(OC)cc2)S3)cc1 (centres undefined)
The melting point of the first is lower: 113 °C for the first, 198 to 200 °C for the second.

First: COC(=O)C=C(CCl)OC
Second: CCCCCCCC(=O)OC
The melting point of the first is higher: 25 °C for the first, -40 °C for the second.

First: CCCCCS(=O)CCCCC
Second: CCCCCCCCCCC1CCCC1
The melting point of the first is higher: 58 °C for the first, -22 °C for the second.

First: COc1ccc(OC)c(C(=O)CBr)c1
Second: COc1ccc(C(=O)O)c(C(F)(F)F)c1
The melting point of the first is lower: 83 to 88 °C for the first, 149 °C for the second.

Compared with NNc1ccc(F)c(Cl)c1, Nc1ccccc1F is lower in melting point: 74 °C for the first, -29 °C for the second.

Going from C[Si](C)(Cl)CC[Si](C)(C)Cl to CC(C)(C)C(C)(C)Cl, the melting point rises from 37 °C to 136 °C.

Compared with ON=Cc1ccc2c(Br)cccc2c1, O=Cc1c[nH]c2cccc(Br)c12 is higher in melting point: 178 °C for the first, 179 to 180 °C for the second.

Compared with S=C=NCC(c1ccccc1)c1ccccc1, O=C(/C=C/C(=O)c1ccccc1)c1ccccc1 is higher in melting point: 36 to 38 °C for the first, 110 to 111 °C for the second.

First: CCCCC(NC(=O)OCC1c2ccccc2-c2ccccc21)C(=O)O (centres undefined)
Second: O=C(CNC(=O)OCC1c2ccccc2-c2ccccc21)Oc1c(F)c(F)c(F)c(F)c1F
The melting point of the first is lower: 141 °C for the first, 159 to 160 °C for the second.

First: ON=C(c1cccs1)c1cccs1
Second: ON=C(c1ccc(F)cc1)c1ccc(F)cc1
The melting point of the first is lower: 134 to 136 °C for the first, 140 °C for the second.

Compared with NNC(N)=O, CC(C)Cc1ccc(C(C)C(=O)NN)cc1 (centres undefined) is lower in melting point: 96 °C for the first, 76 to 78 °C for the second.

First: Cc1nc(Cl)c2c3c(sc2n1)CCCC3
Second: N#Cc1c(NC(=O)c2ccccc2Cl)sc2c1CCCC2
The melting point of the first is lower: 94 to 95 °C for the first, 161 to 162 °C for the second.

First: CC1(C(=O)O)CCC(C=Cc2ccccc2)C1(C)C (centres undefined)
Second: Cc1nn(-c2ccccc2)c(C)c1C(=O)O
The melting point of the first is lower: 124 °C for the first, 199 to 201 °C for the second.

First: COC(=O)N(C(=O)N1COC2(C(=O)OC)Cc3cc(Cl)ccc3C2=N1)c1ccc(OC(F)(F)F)cc1 (centres undefined)
Second: CC(C)(Oc1ccc(CCNC(=O)c2ccc(Cl)cc2)cc1)C(=O)O
The melting point of the first is lower: 88.1 °C for the first, 186 °C for the second.

First: ON=C1CCCc2nonc21
Second: O=C1CCCC(=O)O1
The melting point of the first is higher: 166 to 168 °C for the first, 56.3 °C for the second.

Compared with CCc1cc(C(=O)c2ccc(OC)cc2)c(N)s1, COc1ccc2ccc(=O)oc2c1 is higher in melting point: 100 to 102 °C for the first, 119 °C for the second.

First: CC(C)CC1Nc2cc(Cl)c(S(N)(=O)=O)cc2S(=O)(=O)N1 (centres undefined)
Second: NS(=O)(=O)c1ccc(F)cc1C(F)(F)F
The melting point of the first is higher: 222 °C for the first, 167 °C for the second.

Going from COc1ccc(Br)cc1CC(NC(=O)OC(C)(C)C)C(=O)O (centres undefined) to COC(=O)c1c(C=O)ccc(OC)c1OC, the melting point falls from 132 °C to 83 °C.

First: COC1=C(OC)/C(=C/CN=[N+]=[N-])OC1=O
Second: COc1cc(I)c(OC)cc1Cl
The melting point of the first is lower: 55 to 57 °C for the first, 115 to 116 °C for the second.

First: O=C(O)c1c(F)c(Cl)c(F)c(Cl)c1F
Second: O=C(O)C1=CC(Cl)=C(Cl)[C@H](O)[C@@H]1O
The melting point of the first is lower: 142 to 143 °C for the first, 195 to 200 °C for the second.

First: CCOc1c(NN(C)C)c(=O)c1=O
Second: CCOC(=O)c1c(C)cc(=O)oc1C
The melting point of the first is higher: 130 to 132 °C for the first, 17 to 18 °C for the second.

First: Cc1ccc2ccc(C)nc2c1
Second: Cc1ccc2ccc(Cl)cc2n1
The melting point of the first is lower: 61 °C for the first, 74 to 78 °C for the second.

First: CSc1nc2cc(NCc3ccc(Cl)cc3)ccc2[nH]1
Second: N#CCc1ccc(OCc2ccc(Cl)c(Cl)c2)cc1
The melting point of the first is higher: 248 °C for the first, 76 to 77 °C for the second.

First: CC(C)(C)C1=NN(c2ccccc2)C(=O)C1
Second: CC(C)(C)c1ccc(N=C=S)cc1
The melting point of the first is higher: 110 °C for the first, 42 °C for the second.

Compared with FC(F)(F)c1cccnc1Cl, O=C(Nc1ccccn1)C(C(F)(F)F)C(F)(F)F is higher in melting point: 39 °C for the first, 108 to 110 °C for the second.

First: Nc1ccncc1Br
Second: Cc1cc(I)ccc1N
The melting point of the first is lower: 67 to 71 °C for the first, 86 °C for the second.

First: CC(=O)Nc1ccc(C(=O)O)cc1[N+](=O)[O-]
Second: CCc1ccccc1[N+](=O)[O-]
The melting point of the first is higher: 226 °C for the first, -12.3 °C for the second.

First: c1ccc2c(c1)ccc1[nH]c3ccc4ccccc4c3c12
Second: Ic1ccc(Cc2ccccc2)cc1
The melting point of the first is higher: 158 °C for the first, 38 to 40 °C for the second.

Going from O=C1C2(CCCCC2)C(=O)C12CCCCC2 to O=C1CCCCC1C1CCCCC1 (centres undefined), the melting point falls from 166 °C to -32 °C.

First: COC1C(O)C(C)OC(OC2CCC3(C=O)C(CCC4C3CCC3(C)C(C5=CC(=O)OC5)CCC43O)C2)C1O (centres undefined)
Second: CC12CCC3C(CCC4CC(CC(=O)O)=CCC43C)C1CCC2=O (centres undefined)
The melting point of the first is lower: 162 °C for the first, 175 to 178 °C for the second.

First: NC(=S)Nc1ccccc1F
Second: N#CC(=S)Nc1ccccc1
The melting point of the first is higher: 143 to 145 °C for the first, 75 to 80 °C for the second.

First: CC(=O)N1C(=O)[C@@](O)([C@H]2c3ccccc3O[C@@H]2Cl)c2ccccc21
Second: O=C(O)C1=NN(c2ccccc2)C(=O)C1=CC1C(=O)N(c2ccccc2)N=C1C(=O)O (centres undefined)
The melting point of the first is lower: 133 °C for the first, 257 to 260 °C for the second.

Going from CCCCCCCCc1ccc(NC(=O)c2ccc(OC)cc2)cc1 to CCCCCCCCCc1ccc(OCCOCCO)cc1, the melting point falls from 132 °C to 43 °C.

Compared with Oc1ccc2ccccc2c1CN1CCCCC1, CCC1CCCCN1C(=O)COC(=O)c1ccccc1 (centres undefined) is lower in melting point: 93 to 94 °C for the first, 54.5 °C for the second.

Going from O=C(O)CC(CC(=O)O)C(=O)O to CCCC(O)C(=O)O (centres undefined), the melting point falls from 166 °C to 34 °C.

First: COc1ccc2nc(NN)nnc2c1
Second: COc1ccc(CC#N)cc1Br
The melting point of the first is higher: 238 to 240 °C for the first, 52 °C for the second.

Compared with CCOCCOC(=O)C=Cc1ccc(OC)cc1, COc1cc(C(=O)Oc2ccc(/C=C/C(=O)c3ccccc3)cc2)cc(OC)c1OC is higher in melting point: -25 °C for the first, 95 °C for the second.

First: CCOC(=O)C1=C(N)CCCC1
Second: CON(C(=O)c1cc(C)oc1C)C1CCCCC1
The melting point of the first is higher: 70 to 74 °C for the first, 33 °C for the second.

First: CC(C)NCC(O)c1ccc(NS(C)(=O)=O)cc1 (centres undefined)
Second: COc1ccccc1C(C)O (racemic)
The melting point of the first is higher: 207 °C for the first, 37 to 39 °C for the second.

Going from CCCCCC#CCC(=O)O to CCCCOC(=O)c1ccccc1, the melting point falls from 17 °C to -22.4 °C.

First: Cc1cc(I)cnc1NC(=O)C(C)(C)C
Second: Cc1cc([N+](=O)[O-])cnc1Cl
The melting point of the first is higher: 143 °C for the first, 78 to 80 °C for the second.

First: C#C[C@@]1(OC)CC[C@H]2[C@@H]3CCc4cc(OC)ccc4[C@H]3CC[C@@]21C
Second: CN(C)c1ccc(/C=C2\C(=O)C3CCC(C)(C2=O)C3(C)C)cc1 (centres undefined)
The melting point of the first is lower: 114 °C for the first, 152 to 153 °C for the second.

Compared with O=Cc1cccn1-c1ccc([N+](=O)[O-])cc1, CCOC(=O)/C(C#N)=C/c1ccc(-c2ccc([N+](=O)[O-])cc2)o1 is higher in melting point: 166 to 169 °C for the first, 238 °C for the second.

First: Ic1ccc(I)c(I)c1I
Second: O=C(Cl)c1ccccc1I
The melting point of the first is higher: 136 °C for the first, 30 to 32 °C for the second.

First: O=C1OC2(c3ccc(O)cc3Oc3cc(O)ccc32)c2ccc(N=C=S)cc21
Second: C/C(CCc1oc2ccc(Cl)cc2c1-c1ccc(C)o1)=N/O
The melting point of the first is higher: 360 °C for the first, 114 to 115 °C for the second.

First: Cn1nc(CO)cc1-c1ccco1
Second: Cc1oc(-c2ccccc2)nc1CO
The melting point of the first is lower: 43 to 48 °C for the first, 117 to 118 °C for the second.

Compared with Cc1cc(=O)oc2cc(OC3OCC(O)C(O)C3O)ccc12 (centres undefined), CCOC(=O)c1ncn2c1CN(C)C(=O)c1cc(F)ccc1-2 is lower in melting point: 223 °C for the first, 202 °C for the second.

First: C=C1C(=O)C23C4CC5C(C)(C)CCC(=O)C5(C(=O)O4)C2C(=O)CC1C3O (centres undefined)
Second: CC(=O)OC1CC2C(C)C(=O)C3(C(OC(C)=O)CC4C5(C)CCCC4(C(OC(C)=O)OC5)C13)C2OC(C)=O (centres undefined)
The melting point of the first is higher: 250 °C for the first, 104 °C for the second.

First: CCOC(=O)c1cn[nH]c1NC(=O)Nc1ccccc1
Second: CC(=O)Nc1cccc(N)c1
The melting point of the first is higher: 242 to 245 °C for the first, 84 to 88 °C for the second.

Compared with Cc1ccc(/C=C2/C=C(CC(C)C)OC2=O)o1, Nc1ccc2c3c(cccc13)C(=O)NC2=O is higher in melting point: 88 °C for the first, 360 °C for the second.

First: CC(C)(C)OC(=O)C(Cl)(Cl)Cl
Second: C#CC(C)(O)CC (centres undefined)
The melting point of the first is lower: 25.5 °C for the first, 30.5 °C for the second.

First: C=CCl
Second: Cc1cnc(C)cn1
The melting point of the first is lower: -154 °C for the first, 15 °C for the second.

Compared with Cc1cc(C)c(C2Oc3c(Cl)c(Cl)c(Cl)c(Cl)c3O2)cc1C, Clc1nc(Cl)nc(Oc2cc(Oc3nc(Cl)nc(Cl)n3)cc(Oc3nc(Cl)nc(Cl)n3)c2)n1 is higher in melting point: 188 °C for the first, 240 °C for the second.

First: CCCCNCC(=O)Nc1c(C)cccc1Cl
Second: N#Cc1cccc(C(=O)Cl)c1
The melting point of the first is higher: 45.5 °C for the first, 38 to 44 °C for the second.

First: O=C(Nc1ccccc1)OC1C=CC=CCC1OC(=O)Nc1ccccc1 (centres undefined)
Second: O=C(NC(Cc1ccccc1)C(=O)CCl)OCc1ccccc1 (centres undefined)
The melting point of the first is higher: 179 to 180 °C for the first, 107 to 108 °C for the second.

Compared with O=C(O)C(F)(F)C(F)(F)C(F)(F)C(F)(F)C(F)(F)C(F)(F)C(F)(F)C(F)(F)C(F)(F)C(F)(F)F, O=C1CCC(=O)N1c1nnc(C(F)(F)F)s1 is higher in melting point: 97.9 to 100 °C for the first, 221 °C for the second.

First: O=C(CBr)c1cccc(C(=O)CBr)c1
Second: CN(C=O)c1ccc(C(=O)O)cc1
The melting point of the first is lower: 91 °C for the first, 217 to 221 °C for the second.

Going from CC(C)c1cc(C(C)C)c(S(=O)(=O)N=[N+]=[N-])c(C(C)C)c1 to O=[N+]([O-])c1cc(S(=O)(=O)Cl)ccc1Cl, the melting point rises from 42 °C to 60 °C.

Compared with CC1C=CCCC1 (centres undefined), CC(=O)CCc1cc2c(cc1[N+](=O)[O-])CCC(C)N2C(=O)c1ccccc1 (centres undefined) is higher in melting point: -124 °C for the first, 138 °C for the second.

Compared with CCOCCC(OCC)OCC, CCOC(=O)C12C(c3cc(Br)ccc3OP1(=O)OCC)C1(C(=O)OCC)C2c2cc(Br)ccc2OP1(=O)OCC (centres undefined) is higher in melting point: 53 °C for the first, 272 to 274 °C for the second.

First: CCCCCCCCCCCCOCCOCCOCCOCCOCCOCCO
Second: CCCCCCCCCCCCCCCCCCS(=O)(=O)Cl
The melting point of the first is lower: 27 °C for the first, 58 °C for the second.

First: CC(C=CC1=C(C)CCCC1(C)C)=CC=CC(C)=CC(=O)O
Second: NC(=S)c1c(Cl)cc(C(F)(F)F)cc1Cl
The melting point of the first is higher: 185 °C for the first, 176 to 178 °C for the second.

With N#Cc1ccc(F)cc1F the melting point was 46 °C.
